Results taken from patent publication US20250145585A1, “HETEROCYCLIC INHIBITORS OF IGF-1R FOR TREATMENT OF DISEASE” (HORIZON THERAPEUTICS IRELAND DAC, priority 2023, published 2025).

Assays:
IGF-1R [1] = target: T1, IGF-1R (Homo sapiens, UniProt P08069); assay: Example B-2: IGF-1R Assay (PathHunter cell lines, EC80 agonist challenge, chemiluminescent detection); format: cell-based; details: PathHunter cells, compound 60 minutes at 37° C., EC80 agonist 3 hours; read-out: IC50, Biological Activity against IGF-1R (Table B2)
T1 construct: expressed in transfected cells
Summary of the method: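 PathHunter cells were pre-incubated with compound for 60 min at 37° C (1% vehicle), then challenged with EC80 agonist for 3 h at room temperature. Chemiluminescent detection after 1 h gave % inhibition relative to EC80 and vehicle controls, from which IC50 was derived.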

IGF-1R [2] = target: T1, IGF-1R; assay: Example B-1: IGF-1R Assay (PC3 cells stimulated with IGF1, AlphaLISA on cell lysates); format: cell-based; details: compound two hours, IGF1 200 ng/mL for 30 min, read-out: IC50, Biological Activity against IGF-1R (Table B1)
Summary of the method: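 PC3 cells serum-starved 2 h, treated 2 h with 3-fold serially diluted compound, then stimulated 30 min with IGF1 (200 ng/mL final). Lysates analysed by AlphaLISA; % inhibition calculated relative to vehicle and EC80 controls, IC50 derived.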

T1 sequence (P08069 31-1367): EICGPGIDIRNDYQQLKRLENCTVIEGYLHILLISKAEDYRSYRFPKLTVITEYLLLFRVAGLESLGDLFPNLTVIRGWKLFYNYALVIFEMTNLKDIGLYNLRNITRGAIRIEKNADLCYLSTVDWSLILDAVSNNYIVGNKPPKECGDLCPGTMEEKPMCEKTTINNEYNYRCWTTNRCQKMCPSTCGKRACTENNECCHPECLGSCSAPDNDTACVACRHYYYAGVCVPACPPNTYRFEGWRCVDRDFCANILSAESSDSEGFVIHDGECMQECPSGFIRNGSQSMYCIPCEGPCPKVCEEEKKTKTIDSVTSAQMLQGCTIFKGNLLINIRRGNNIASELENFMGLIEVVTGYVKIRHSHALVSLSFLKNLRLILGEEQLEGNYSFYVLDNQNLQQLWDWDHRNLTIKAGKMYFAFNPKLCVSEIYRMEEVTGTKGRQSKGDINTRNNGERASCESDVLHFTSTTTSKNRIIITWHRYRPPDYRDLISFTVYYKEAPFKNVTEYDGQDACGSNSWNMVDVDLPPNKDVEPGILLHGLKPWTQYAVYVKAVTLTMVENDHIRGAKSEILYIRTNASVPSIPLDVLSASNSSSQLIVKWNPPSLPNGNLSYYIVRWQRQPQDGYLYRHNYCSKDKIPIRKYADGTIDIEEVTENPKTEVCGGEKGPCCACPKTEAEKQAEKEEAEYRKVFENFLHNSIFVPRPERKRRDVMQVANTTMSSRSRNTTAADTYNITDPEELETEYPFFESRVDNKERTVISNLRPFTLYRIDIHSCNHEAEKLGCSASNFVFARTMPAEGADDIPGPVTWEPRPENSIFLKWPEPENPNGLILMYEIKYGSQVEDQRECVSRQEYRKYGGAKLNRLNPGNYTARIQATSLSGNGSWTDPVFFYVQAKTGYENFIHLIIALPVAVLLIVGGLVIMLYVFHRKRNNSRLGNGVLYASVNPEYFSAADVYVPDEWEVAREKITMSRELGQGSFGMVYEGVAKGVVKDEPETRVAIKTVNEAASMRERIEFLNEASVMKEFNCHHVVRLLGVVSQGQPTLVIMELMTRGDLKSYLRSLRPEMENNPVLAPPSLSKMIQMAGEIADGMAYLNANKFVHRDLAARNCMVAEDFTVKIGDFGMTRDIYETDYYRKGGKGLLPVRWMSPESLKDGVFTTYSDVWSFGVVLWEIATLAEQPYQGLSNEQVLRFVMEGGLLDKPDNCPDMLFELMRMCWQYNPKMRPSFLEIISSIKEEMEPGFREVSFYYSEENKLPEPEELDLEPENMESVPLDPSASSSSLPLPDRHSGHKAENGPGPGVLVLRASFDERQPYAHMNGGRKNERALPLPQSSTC

Row | IC50 (IGF-1R [1]) [nM] | IC50 (IGF-1R [2]) [nM] | Compound
1 | 2000 to 10000 | 500 to 2000 | CC(C)Nc1cc(CN2C(=O)N(c3ccc4c(C(F)(F)F)nn(C)c4c3)C(=O)C2(C)C)ccn1 [Compound 256, 1-((2-(isopropylamino)pyridin-4-yl)methyl)-5,5-dimethyl-3-(1-methyl-3-(trifluoromethyl)-1H-indazol-6-yl)imidazolidine-2,4-dione]
2 | 2000 to 10000 | 2000 to 10000 | CC(C)Nc1cc(CN2C(=O)N(c3ccc4c(C5CC5)n[nH]c4c3)C(=O)C2(C)C)ccn1 [Compound 258, 3-(3-cyclopropyl-1H-indazol-6-yl)-1-((2-(isopropylamino)pyridin-4-yl)methyl)-5,5-dimethylimidazolidine-2,4-dione]
3 | 500 to 2000 | ≤ 500 | CC(C)(C)c1ccc(N2C(=O)N(Cc3ccnc(NC4CCCCC4)c3)C(C)(C)C2=O)cc1 [Compound 264, 3-(4-(tert-butyl)phenyl)-1-((2-(cyclohexylamino)pyridin-4-yl)methyl)-5,5-dimethylimidazolidine-2,4-dione]
4 | ≤ 500 | ≤ 500 | CC(C)Nc1cc(CN2C(=O)N(c3ccc(C(C)(C)C)nc3)C(=O)C2(C)C)ccn1 [Compound 267, 3-(6-(tert-butyl)pyridin-3-yl)-1-((2-(isopropylamino)pyridin-4-yl)methyl)-5,5-dimethylimidazolidine-2,4-dione]
5 | ≤ 500 | ≤ 500 | CC(C)Nc1cc(CN2C(=O)N(c3ccc(C(C)(C)C)cn3)C(=O)C2(C)C)ccn1 [Compound 277, 3-(5-(tert-butyl)pyridin-2-yl)-1-((2-(isopropylamino)pyridin-4-yl)methyl)-5,5-dimethylimidazolidine-2,4-dione]
6 | 500 to 2000 | ≤ 500 | C[C@@H](CC#N)Nc1cc(CN2C(=O)N(c3ccc(C(C)(C)C)cc3)C(=O)C2(C)C)ccn1 [Compound 278, (S)-3-((4-((3-(4-(tert-butyl)phenyl)-5,5-dimethyl-2,4-dioxoimidazolidin-1-yl)methyl)pyridin-2-yl)amino)butanenitrile]
7 | 2000 to 10000 | 2000 to 10000 | CC(C)Nc1cc(CN2C(=O)N(c3ccc(SC(F)(F)F)cc3)C(=O)C2(C)CO)ccn1 (stereo not drawn) [Compound 299, 5-(hydroxymethyl)-1-((2-(isopropylamino)pyridin-4-yl)methyl)-5-methyl-3-(4-((trifluoromethyl)thio)phenyl)imidazolidine-2,4-dione]
8 | ≤ 500 | ≤ 500 | COC[C@@H](C)Nc1cc(CN2C(=O)N(c3ccc(S(=O)(=O)C(F)(F)F)cc3)C(=O)C2(C)C)ccn1 [Compound 318, (R)-1-((2-((1-methoxypropan-2-yl)amino)pyridin-4-yl)methyl)-5,5-dimethyl-3-(4-((trifluoromethyl)sulfonyl)phenyl) imidazolidine-2,4-dione]
9 | 500 to 2000 | 500 to 2000 | CC(C)Nc1cc(CN2C(=O)N(c3ccc(SC(F)(F)F)nc3)C(=O)C2(C)C)ccn1 [Compound 392, 1-((2-(isopropylamino)pyridin-4-yl)methyl)-5,5-dimethyl-3-(6-((trifluoromethyl)thio)pyridin-3-yl)imidazolidine-2,4-dione]

The remaining lines, values behind:

Row | Compound | IC50 (IGF-1R [1]) [nM] | IC50 (IGF-1R [2]) [nM]
10 | CC(C)Nc1cc(CN2C(=O)N(c3ccc(SC(F)(F)F)cc3)C(=O)[C@@H]2CO)ccn1 [Compound 298, (S)-5-(hydroxymethyl)-1-((2-(isopropylamino)pyridin-4-yl)methyl)-3-(4-((trifluoromethyl)thio)phenyl)imidazolidine-2,4-dione] | > 10000 | > 10000
11 | CC1(C)C(=O)N(c2ccc(SC(F)(F)F)cc2)C(=O)N1Cc1ccnc(NC2CCOCC2)c1 [Compound 310, 5,5-dimethyl-1-((2-((tetrahydro-2H-pyran-4-yl)amino)pyridin-4-yl)methyl)-3-(4-((trifluoromethyl)thio)phenyl)imidazolidine-2,4-dione] | ≤ 500 | ≤ 500
12 | CC1(C)C(=O)N(c2ccc(S(=O)(=O)C(F)(F)F)cc2)C(=O)N1Cc1ccnc(NC2CCOCC2)c1 [Compound 316, 5,5-dimethyl-1-((2-((tetrahydro-2H-pyran-4-yl)amino)pyridin-4-yl)methyl)-3-(4-((trifluoromethyl)sulfonyl)phenyl) imidazolidine-2,4-dione] | ≤ 500 | ≤ 500
13 | CC1(C)C(=O)N(c2ccc(S(=O)(=O)C(F)(F)F)cc2)C(=O)N1Cc1ccnc(NCC(F)F)c1 [Compound 317, 1-((2-((2,2-difluoroethyl)amino)pyridin-4-yl)methyl)-5,5-dimethyl-3-(4-((trifluoromethyl)sulfonyl)phenyl) imidazolidine-2,4-dione] | ≤ 500 | ≤ 500
14 | CC1(C)C(=O)N(c2ccc(S(=O)(=O)C(F)(F)F)cc2)C(=O)N1Cc1ccnc(N[C@H]2[C@@H]3COC[C@@H]32)c1 [Compound 319, 1-((2-(((1R,5S,6r)-3-oxabicyclo[3.1.0]hexan-6-yl)amino)pyridin-4-yl)methyl)-5,5-dimethyl-3-(4-((trifluoromethyl)sulfonyl)phenyl) imidazolidine-2,4-dione] | ≤ 500 | ≤ 500
15 | CC1(C)C(=O)N(c2ccc(SC(F)(F)F)cc2)C(=O)N1Cc1ccnc(NC(=O)Nc2cccc(F)c2)c1 [Compound 373, 1-(4-((5,5-dimethyl-2,4-dioxo-3-(4-((trifluoromethyl)thio)phenyl)imidazolidin-1-yl)methyl)pyridin-2-yl)-3-(3-fluorophenyl)urea] | ≤ 500 | ≤ 500
16 | CC1(C)C(=O)N(c2ccc(SC(F)(F)F)cc2)C(=O)N1Cc1ccnc(N)c1Br [Compound 388, 1-((2-amino-3-bromopyridin-4-yl)methyl)-5,5-dimethyl-3-(4-((trifluoromethyl)thio)phenyl)imidazolidine-2,4-dione] | ≤ 500 | ≤ 500
17 | CC1(C)C(=O)N(c2ccc(SC(F)(F)F)cc2)C(=O)N1Cc1ccnc(N)c1P(C)(C)=O [Compound 389, 1-((2-amino-3-(dimethylphosphoryl)pyridin-4-yl)methyl)-5,5-dimethyl-3-(4-((trifluoromethyl)thio)phenyl) imidazolidine-2,4-dione] | 500 to 2000 | 500 to 2000
18 | CC(C)Nc1nccc(CN2C(=O)N(c3ccc(SC(F)(F)F)cc3)C(=O)C2(C)C)c1Br [Compound 390, 1-((3-bromo-2-(isopropylamino)pyridin-4-yl)methyl)-5,5-dimethyl-3-(4-((trifluoromethyl)thio)phenyl)imidazolidine-2,4-dione] | ≤ 500 | 2000 to 10000
19 | CC1(C)C(=O)N(c2ccc(SC(F)(F)F)cc2)C(=O)N1Cc1ccnc(N)c1C#N [Compound 391, 2-amino-4-((5,5-dimethyl-2,4-dioxo-3-(4-((trifluoromethyl)thio)phenyl)imidazolidin-1-yl)methyl)nicotinonitrile] | ≤ 500 | ≤ 500
20 | COc1c(CN2C(=O)N(c3ccc(S(=O)(=O)C(F)(F)F)cc3)C(=O)C2(C)C)ccnc1N [Compound 394, 1-((2-amino-3-methoxypyridin-4-yl)methyl)-5,5-dimethyl-3-(4-((trifluoromethyl)sulfonyl)phenyl) imidazolidine-2,4-dione] | ≤ 500 | ≤ 500
21 | CN1C(=O)C2(CC2)c2ccc(N3C(=O)N(Cc4ccnc(N)c4)C(C)(C)C3=O)cc21 [Compound 402, 1-((2-aminopyridin-4-yl)methyl)-5,5-dimethyl-3-(1′-methyl-2′-oxospiro[cyclopropane-1,3′-indolin]-6′-yl)imidazolidine-2,4-dione] | 2000 to 10000 | 2000 to 10000
